The test has as its system d(GC)9 duplex (d(GC)9d(GC)9) (DNA, duplex) GCGCGCGCGCGCGCGCGC
The experiment in a line: fluorescence quenching and UV-vis absorption red shift. Conditions: 100 mM NaCl, 50 mM sodium phosphate; PBS pH 7.4, room temperature; 5 μM proflavine, 2.5 μM DNA; intercalation.

In publication PMC9738913 (2022) one finds binding data, which are given here for one molecule.

In the case of `Nc1ccc2cc3ccc(N)cc3nc2c1`, the binding entry was “yes”.
